Results published in patent US10857119B2, “Composition containing monoacetyldiacylglycerol compound as active ingredient for inhibiting blood cancer or metastasis” (ENZYCHEM LIFESCIENCES CORPORATION, priority 2013, dated 2020).

How the values were obtained:
[1] = tested on: rat IL-4; assay: IL-4 secretion by ELISA in RBL-2H3 cells; assay type: cell-based; settings: 10 μg/Ml EC-18
Description: The cells were treated with 0.1 μg/Ml to 10 μg/Ml EC-18 for 1 hour and antigen was processed. After the incubation for 18 hours at 37° C., the cell was removed to obtain a supernatant. The quantification of rat IL-4 which was present in the cell culture medium of RBL-2H3 cells was made by carrying out enzyme-linked immunosorbent assay (ELISA) according to the protocol indicated by the manufacturer using commercially purchasable monoclonal antibody (mAb) (BD Biosciences).

[2] = GLP toxicity test; cited from earlier work

## CCCCC/C=C\C/C=C\CCCCCCCC(=O)OC(COC(C)=O)COC(=O)CCCCCCCCCCCCCCC (centres unmarked) [EC-18, 1-palmitoyl-2-linoleoyl-3-acetylglycerol]
[1]
  inhibition at 10 µg/mL: ≥ 60%
[2]
  toxicity: no-toxicity
